Usually IC50 stands for the concentration that inhibits the measured activity by half.

The values that follow come from PMC8125528 (Molecules, 2021).

The structures appear in SMILES notation. Where two headings read alike, the source gives them in different places.

In data set [1] the test system is HepaRG cells. Put plainly: MTT antiproliferative assay, HepaRG. The class given is cell-based. To be noted: for IC50: Homo sapiens, liver HepaRG cells, 72 h, MTT assay, 0.1-100 µM, read-out: Estimated IC50, HepaRG; for Selectivity index, HepaRG: ratio of IC50 in NHDF to IC50 in HepaRG. As for the experimental part:
(§1) Each experiment was performed in quadruplicate and independently repeated.

The test system of data set [2] is MCF-7 cells. Description: MTT antiproliferative assay, MCF-7. To be noted: for IC50: Homo sapiens, MCF7, breast MCF-7 cells, 72 h, MTT assay, 0.1-100 µM, read-out: Estimated IC50, MCF-7; for Selectivity index, MCF-7: ratio of IC50 in NHDF to IC50 in MCF-7. The class given is cell-based. As for the experimental part: as §1
For data set [3], the system named is Caco-2 cells. Description: cells. To be noted: Homo sapiens, Caco-2, 72 h, read-out: Estimated IC50, Caco-2. As for the experimental part:
(§2) The antiproliferative effect of compounds was evaluated by the 3-(4,5-dimethylthiazol-2-yl)-2,5-diphenyltetrazolium bromide (MTT; Sigma-Aldrich, St Louis, MO, USA) assay in MCF-7, T47-D, LNCaP, HepaRG, Caco-2 and NHDF cells. After reaching near confluence, cells were trypsinized and counted with a hemocytometer by means of the trypan-blue exclusion of dead cells. Then, 100 µL of cell suspension (2 × 10^4 cells/mL) was seeded in 96-well culture plates and left to adhere and growth during 48 h. […] Afterward, MTT containing medium was removed and formazan crystals were dissolved in DMSO. Absorbance was measured at 570 nm using a microplate reader Bio-rad Xmark spectrophotometer. After background subtraction, cell proliferation values were expressed as percentage relatively to the absorbance determined in negative control cells. Untreated cells were used as the negative control and the clinical drug 5-fluorouracil (5-FU) was used as positive control. Each experiment was performed in quadruplicate and independently repeated.
(§3) Data were expressed as mean ± standard deviation (SD). t-Student test (two groups) and one-way ANOVA (three groups) were used followed by Bonferroni post hoc tests to determine statistically significant differences among the means.

Data set [4] concerns normal human dermal fibroblasts (NHDF). Put plainly: MTT antiproliferative assay, NHDF. In kind it is cell-based. The settings on record: normal fibroblast NHDF cells, 72 h, 0.1-100 µM, read-out: Estimated IC50, NHDF. The procedure:
as §1

Data set [5] relates to T47-D cells. Description: MTT antiproliferative assay, T47-D. The settings on record: for IC50: Homo sapiens, T47D, breast T47-D cells, 72 h, MTT assay, 0.1-100 µM, read-out: Estimated IC50, T47-D; for Selectivity index, T47-D: ratio of IC50 in NHDF to IC50 in T47-D. In kind it is cell-based. The procedure:
as §1

The test system of data set [6] is LNCaP cells. Put plainly: MTT antiproliferative assay, LNCaP. In kind it is cell-based. The settings on record: for IC50: Homo sapiens, prostate LNCaP cells, MTT assay, 0.1-100 µM, read-out: Estimated IC50, LNCaP; for Selectivity index, LNCaP: ratio of IC50 in NHDF to IC50 in LNCaP. The procedure:
as §1

Data set [7] relates to LNCaP cells. Description: LNCaP cell viability by flow cytometry after propidium iodide staining. In kind it is cell-based. The settings on record: 50 µM, 24 h, PI flow cytometry. As for the experimental part:
The analysis of LNCaP cells viability was performed by flow cytometry after staining with propidium iodide (PI) (solution of PI 1 mg/mL in 0.1% of sodium azide and water; Sigma Aldrich, St Louis, MO, USA). Briefly, 3 mL of cells suspension were seeded in 6-well plates (5 × 10^4 cells/mL) in complete culture medium. After 48 h they were treated with 50 µM of compound 11. Untreated cells were used as negative control and 5-FU (50 µM) was used as positive control. Each experiment was performed in duplicate and independently repeated. At the end of 24 h of incubation, the supernatant of each well was collected, cells were harvested by trypsinization and pooled with the supernatants. The resulting cell suspension was kept on ice, pelleted by centrifugation and resuspended in 400 µL of complete medium. Afterward, 395 µL of the cell suspension was transferred to a FACS tube and 5 µL of PI and 0.5 µL of ethylenediamine tetraacetic acid (EDTA, 0.123 M) were added. A minimum of 20,000 events was acquired using a BD Accuri C6 (San Jose, CA, USA) flow cytometer in the channels forward scatter (FSC), side scatter (SSC) and fluorescence channel-3 (FL3, for PI). Acquisition and analysis were performed with BD Accuri Software. […]
In general terms: Flow cytometry measures light scatter and fluorescence of single cells or particles in a stream.

Data set [8] is described as follows: in vitro. The settings on record: human, Caco-2. The procedure: as §2, §3
Data set [9] has as its system LNCaP cells. Description: Cell cycle distribution of LNCaP cells by flow cytometry. In kind it is cell-based. To be noted: 50 µM, 24 h. The procedure:
After 24 h of treatment with compound 11 at 50 µM (6-well plates, 5 × 10^4 cells/mL), LNCaP cells were collected and washed with PBS and resuspended in 450 µL of a cold solution of 0.5% bovine serum albumin (BSA; Amresco, Solon, OH, USA) and 1 mM EDTA in PBS, followed by fixation with 70% EtOH and kept at −20 °C. Afterward, fixed cells were washed twice with PBS and resuspended in a solution of PI (50 µg/mL) prepared in 0.5% BSA and 1 mM EDTA in PBS and then incubated with Ribonuclease A from bovine pancreas at a final concentration of 0.5 µg/µL (solution in 50% glycerol, 10 mM Tris-HCl, pH 8; Sigma Aldrich, St Louis, MO, USA) for 15 min in the dark. For comparison, untreated cells were used as negative control and cells treated with 5-FU at 50 µM were used as positive control. Each experiment was performed in duplicate and independently repeated. A minimum of 10,000 events was acquired using BD Accuri Software and analysis was performed by Modfit software (Becton Dickinson, San Jose, CA, USA).

The test system of data set [10] is MCF-7, T47D, LNCaP, HepaRG, Caco-2 and NHDF cell lines. Description: MTT screening at 30 µM in six cell lines. The class given is cell-based. To be noted: 72 h. As for the experimental part: as §1
The test system of data set [11] is HepaRG cell cycle. The arrangement: method as in doi:10.5802/crchim.17. To be noted: HepaRG cells; cited from earlier work.
Data set [12] deals with estrogen-sensitive breast cancer T47-D cells (ER+). Also noted: method as in doi:10.5802/crchim.17. To be noted: previous study; cited from earlier work.
For data set [13], the system named is LNCaP cells. Description: Fluorescence microscopy of LNCaP cells after Hoechst 33258 DNA staining. In kind it is cell-based. The settings on record: 50 µM, 24 h. As for the experimental part: Near-confluent LNCaP cells were seeded in a 6-well plate (5 × 10^4 cells/mL). After adherence and incubation for 24h with compound 11 (50 µM), the dye Hoechst 33,258 was added to the culture medium to achieve a final concentration of 1µg/mL. The cells were incubated for 15 min at 37 °C and were then photographed by means of a Nikon Eclipse microscope equipped with a fluorescence attachment containing the appropriate optical blocks and a QCapture CCD camera.

Data set [14] relates to estrogen-sensitive breast cancer T47-D cells (ER+). Put plainly: E-screening (estrogenicity) assay in T47-D cells. The settings on record: 0.001 and 0.01 µM, vs. negative control, MTT readout. In kind it is cell-based. The procedure: After overnight incubation, the medium was replaced every 3 days with fresh phenol red free RPMI 1640 medium supplemented with 5% of dextran-coated charcoal-treated fetal calf serum (DCC-FCS) and containing compound 11 (0.1, 0.01 and 0.001 µM). […] Each experiment was performed in quadruplicate and independently repeated.

Data set [15] deals with 17β-HSD1. To be noted: at 10 μM; cited from earlier work.
The test system of data set [16] is uterine growth. Also noted: method as in PMID 10447965. The settings on record: ovariectomized rats; cited from earlier work.

For `C[C@]12CC[C@@H]3c4ccc(O)cc4CC[C@H]3[C@@H]1CCC2=O` [Compound 1, estrone, reference compound], the IC50 in [1] was 29.5 µM; in data set [2], 41.9 µM; in [3] it was 42.7 µM; in [4] it was 61.8 µM.

For the compound `C[C@]12CC[C@@H]3c4ccc(O)cc4CC[C@H]3[C@@H]1CCC2=NO` [Compound 2, 17-hydroxyiminoestra-1,3,5(10)-trien-3-ol], in data set [5], the concentration for half-maximal inhibition (IC50) is 29.3 µM and the “Selectivity index, T47-D” value came out at 1.50. For the same compound, in [1], the IC50 is 16.9 µM and the “Selectivity index, HepaRG” value turned out to be 2.59. Further, in data set [2], the half-maximal inhibitory concentration (IC50) was 26.7 µM and the “Selectivity index, MCF-7” value is reported as 1.65. In [4], the half-maximal inhibitory concentration (IC50) was 43.9 µM.

On to `C[C@]12CC[C@@H]3c4cc([N+](=O)[O-])c(O)cc4CC[C@H]3[C@@H]1CCC2=NO` [Compound 5, 17-hydroxyimino-2-nitroestra-1,3,5(10)-trien-3-ol], for which the half-maximal inhibitory concentration (IC50) in data set [1] was 12.3 µM; in [2], 16.8 µM; in [3] it was 18.5 µM.

In the case of `O=c1[nH]cc(F)c(=O)[nH]1` [Compound 5-FU, 5-fluorouracil, reference compound], the IC50 in data set [5] is 0.54 µM; in data set [6] (72 h), 7.79 µM; in data set [1] it was 1.78 µM; in data set [3], 1.31 µM; in data set [4] it was 3.61 µM. For the same compound, in [5], the “Selectivity index, T47-D” value was 6.69. In addition, the “Selectivity index, LNCaP” value in data set [6] is recorded as 0.46. Also, the “Selectivity index, HepaRG” value in data set [1] amounted to 2.03. Moreover, in [2], the “Selectivity index, MCF-7” value is listed as 2.11. In data set [7], the “Reduction in cell viability” value came to 12%. Further, the selectivity ratio at 72 h in data set [8] came out at 2.76. Besides, in [9], the “Effect on cell cycle distribution” value was “not able to pass through to the S and G2/M phases”.

For `C[C@]12CC[C@@H]3c4cc([N+](=O)[O-])c(O)c([N+](=O)[O-])c4CC[C@H]3[C@@H]1CCC2=NO` [Compound 6, 17-hydroxyimino-2,4-dinitroestra-1,3,5(10)-trien-3-ol], in data set [10], the “Cytotoxic/antiproliferative effect in screening” value is listed as “low antiproliferative activity”.

As for `C[C@]12CC=C3c4ccc(O)cc4CCC3C1CCC2=O` (stereo partly drawn) [Compound 8, Δ^9,11-E1], the “Effect on cell cycle” value in [11] is recorded as “induced an arrest at G0/G1”. Besides, the “Proliferative/estrogenic effect on T47-D cells” value (“Proliferative/estrogenic effect” below) in data set [12] is listed as “stimulated the proliferation of T47-D cells”.

Take `C[C@]12CC[C@@H]3c4cc(I)c(O)c(I)c4CC[C@H]3[C@@H]1CCC2=NO` [Compound 10, 17-hydroxyimino-2,4-diiodooestra-1,3,5(10)-trien-3-ol]: in data set [1], the IC50 is 28 µM.

Take `C[C@]12CC=C3c4ccc(O)cc4CCC3C1CCC2=NO` (stereo partly drawn) [Compound 11, 17-hydroxyimino-3-hydroxyestra-1,3,5(10),9(11)-tetraen-3-ol]: the 50% inhibitory concentration (IC50) in [5] is 43.5 µM; in data set [6] (72 h), 3.59 µM; in data set [1] it was 18.4 µM; in [2], 25.6 µM; in data set [3], 24.3 µM; in data set [4], 30.8 µM. Further, the “Selectivity index, T47-D” value in data set [5] turned out to be 0.71. The “Reduction of cell proliferation in screening” value in data set [6] (LNCaP cells, 30 µM, 72 h, MTT) is given as “significant reduction of LNCaP cells proliferation”. Moreover, the “Selectivity index, LNCaP” value in data set [6] was determined as 8.59. Further, the “Selectivity index, HepaRG” value in [1] amounted to 1.68. For the same compound, the “Selectivity index, MCF-7” value in [2] worked out at 1.20. Moreover, the “Nuclei morphology (Hoechst 33,258)” value in data set [13] is “condensed DNA, typical of prophase, and a small proportion of condensed and fragmented nuclei, typical of apoptosis”. For the same compound, the “Reduction in cell viability” value in data set [7] was determined as 11%. The “Proliferative/estrogenic effect” value in [14] was “stimulated the cell proliferation”. Also, the selectivity ratio at 72 h in [8] stood at 1.27. Moreover, the “Effect on cell cycle distribution” value in data set [9] is reported as “induced a G2/M cell cycle arrest”.

In the case of `C[C@]12CCC3c4cc(Br)c(O)c(Br)c4CCC3C1CCC2=NO` (stereo partly drawn) [Compound 12, 17-hydroxyimino-2,4-dibromo-3-hydroxyestra-1,3,5(10)-trien-3-ol], in [1], the 50% inhibitory concentration (IC50) was 21.9 µM.

In the case of `CC12CCC3c4ccc(O)cc4CCC3C1CC(=NO)C2=O` (stereo not drawn) [Compound 16-oxime], in [15], the “% inhibition of 17β-HSD1” value is on record as 96%.

For the compound `C[C@]12CC[C@@H]3c4ccc(O)cc4CC[C@H]3[C@@H]1CC[C@@H]2O` [Compound E2, 17β-estradiol, reference compound], the “Proliferative/estrogenic effect” value in [14] is “stimulated the cell proliferation”.

In the case of `C[C@]12CC[C@@H]3c4ccc(OS(N)(=O)=O)cc4CC[C@H]3[C@@H]1CCC2=O` [EMATE, estrone sulfamate], in data set [16], the “Stimulatory effect on the uterine growth” value is listed as 0.11 g.

For the compound `C[C@]12CCC3c4ccc(OS(N)(=O)=O)cc4CCC3C1CC/C2=N\O` (stereo partly drawn) [OMATE, estrone oxime sulfamate], the “Stimulatory effect on the uterine growth” value in data set [16] is recorded as 0.15 g.
